Molecular target: T1, human AR (androgen receptor) (Homo sapiens, UniProt P10275)
T1 construct: expressed in transfected cells; host or cells: HEK293 (lysate, 293-AR)
T1 sequence (P10275 1-920): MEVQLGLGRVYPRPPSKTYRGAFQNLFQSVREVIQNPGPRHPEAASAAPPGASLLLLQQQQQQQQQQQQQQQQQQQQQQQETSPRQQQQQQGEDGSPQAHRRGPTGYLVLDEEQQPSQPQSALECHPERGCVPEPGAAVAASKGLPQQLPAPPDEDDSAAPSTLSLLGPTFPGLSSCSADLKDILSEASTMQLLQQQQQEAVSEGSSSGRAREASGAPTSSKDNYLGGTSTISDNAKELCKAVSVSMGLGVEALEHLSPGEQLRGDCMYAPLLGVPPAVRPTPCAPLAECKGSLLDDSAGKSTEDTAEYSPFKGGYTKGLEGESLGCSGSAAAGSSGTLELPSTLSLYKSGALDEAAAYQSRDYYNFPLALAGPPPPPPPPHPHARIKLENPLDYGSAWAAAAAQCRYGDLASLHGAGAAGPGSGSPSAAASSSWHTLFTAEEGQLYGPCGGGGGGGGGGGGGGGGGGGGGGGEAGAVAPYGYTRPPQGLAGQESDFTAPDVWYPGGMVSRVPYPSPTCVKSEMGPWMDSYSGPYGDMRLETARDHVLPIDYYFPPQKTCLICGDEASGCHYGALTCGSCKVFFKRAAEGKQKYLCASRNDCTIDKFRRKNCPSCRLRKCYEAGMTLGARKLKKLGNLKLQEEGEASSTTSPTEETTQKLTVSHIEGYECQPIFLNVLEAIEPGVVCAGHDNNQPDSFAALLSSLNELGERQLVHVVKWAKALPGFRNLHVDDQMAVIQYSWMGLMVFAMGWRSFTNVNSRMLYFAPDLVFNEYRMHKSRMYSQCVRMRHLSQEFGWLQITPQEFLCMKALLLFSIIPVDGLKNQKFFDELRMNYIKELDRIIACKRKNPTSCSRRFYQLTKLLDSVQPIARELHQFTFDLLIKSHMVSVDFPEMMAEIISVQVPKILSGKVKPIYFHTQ
Test: Steroid hormone nuclear receptor binding assay, AR
Conditions: HEK293 lysate overexpressing human AR, [3H]-methyltrienolone
Description: Cell lysates from human embryonic kidney HEK293 cells overexpressing human MR (mineralocorticoid receptor), GR (glucocorticoid receptor), AR (androgen receptor), or PR (progesterone receptor) are used for receptor-ligand competition binding assays to determine Ki values. Typical procedures are provided below
Briefly, steroid receptor competition binding assays are run in a buffer containing 20 mM HEPES buffer (pH=7.6), 0.2 mM EDTA, 75 mM NaCl, 1.5 mM MgCl2, 20% glycerol, 20 mM sodium molybdate, 0.2 mM DTT (dithiothreitol), 20 μg/mL aprotinin and 20 μg/mL leupeptin (assay buffer). […] Assays are typically run in 96-well format. Competing test compounds are added at various concentrations ranging from about 0.01 nM to 10 μM. Non-specific binding is determined in the presence of 500 nM aldosterone for MR binding, 500 nM dexamethasone for GR binding, or 500 nM methyltrienolone for AR and PR binding. The binding reactions (140 μL) are incubated overnight at 4° C., then 70 μL of cold charcoal-dextran buffer (containing per 50 mL of assay buffer, 0.75 g of charcoal and 0.25 g of dextran) is added to each reaction. […] After an incubation of 2 hours, plates are read in a Wallac Microbeta counter.
The Kd for [^3H]-aldosterone for MR binding, [^3H]-dexamethasone for GR binding, [^3H]-methyltrienolone for AR binding, or [^3H]-methyltrienolone for PR binding, is determined by saturation binding. […]

`CC(C)OC(=O)N[C@H]1Cc2c(n(C[C@H]3OCC[C@@H]3O)c3ccc(C#N)cc23)C1` [compound of Formula (I), [(S)-7-Cyano-4-((2R,3S)-3-hydroxytetrahydrofuran-2-ylmethyl)-1,2,3,4-tetrahydrocyclopenta[b]indol-2-yl]-carbamic acid isopropyl ester] gave a Ki of ~10 nM.

From patent US8183388B2, “Androgen receptor modulator and uses thereof” (Eli Lilly and Company, priority 2009, dated 2012)
